Patent publication US6362183B1, “Aromatic sulfonyl alpha-hydroxy hydroxamic acid compounds” (G. D. Searle & Company, priority 1997, dated 2002)

Key:
Test in all cases: In vitro metalloprotease inhibition, fluorogenic peptide assay
Format in all cases: biochemical
MMP-2 = biological target: T1, MMP-2 (Homo sapiens, UniProt P08253); settings: for IC50: MCA peptide substrate 4 μM, room temperature, pH 7.5
T1 sequence (P08253 110-660): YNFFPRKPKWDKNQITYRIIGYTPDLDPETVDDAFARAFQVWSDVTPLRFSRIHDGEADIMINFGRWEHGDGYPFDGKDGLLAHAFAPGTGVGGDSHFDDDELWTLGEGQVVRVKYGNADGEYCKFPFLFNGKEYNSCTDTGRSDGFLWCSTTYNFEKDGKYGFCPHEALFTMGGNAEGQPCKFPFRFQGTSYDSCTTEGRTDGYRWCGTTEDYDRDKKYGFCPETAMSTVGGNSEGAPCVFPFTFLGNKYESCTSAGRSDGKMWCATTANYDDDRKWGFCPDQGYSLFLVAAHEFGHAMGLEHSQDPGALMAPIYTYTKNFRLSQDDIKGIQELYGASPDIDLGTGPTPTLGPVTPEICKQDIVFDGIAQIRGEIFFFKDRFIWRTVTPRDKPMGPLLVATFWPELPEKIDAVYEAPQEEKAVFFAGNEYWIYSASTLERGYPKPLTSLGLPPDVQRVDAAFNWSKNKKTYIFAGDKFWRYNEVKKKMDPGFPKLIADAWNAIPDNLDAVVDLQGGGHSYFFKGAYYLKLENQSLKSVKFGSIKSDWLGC
Experimental: (§1) Briefly, 4-aminophenylmercuric acetate (APMA) or trypsin activated MMPs were incubated with various concentrations of the inhibitor compound at room temperature for 5 minutes.
(§2) MCA-ProLeuGlyLeuDpaAlaArgNH^2, wherein MCA is methoxycoumarin and Dpa is 3-(2,4-dinitrophenyl)-L-2,3-diaminopropionyl alanine.
(§3) The buffer used for assays contained 100 mM Tris-HCl, 100 mM NaCl, 10 mM CaCl2 and 0.05 percent polyethyleneglycol (23) lauryl ether at a pH value of 7.5.

recombinant human MMP-13 = biological target: T2, recombinant human MMP-13 (Homo sapiens, UniProt P45452); settings: for IC50: APMA-activated enzyme, MCA peptide substrate 4 μM, room temperature, pH 7.5; for inhibitory activity against MMP-13 (in words): discussion of Table 51
T2 construct: made in house
Experimental: as §1
(§4) More specifically, recombinant human MMP-13 and MMP-1 enzymes were prepared in laboratories of the assignee. MMP-13 was expressed in baculovirus as a proenzyme, and purified first over a heparin agarose column and then over a chelating zinc chloride column. The proenzyme was activated by APMA for use in the assay. MMP-1 expressed in transfected HT-1080 cells was provided by Dr. Howard Welgus of Washington University, St. Louis, Mo. The enzyme was also activated using APMA and was then purified over a hydroxamic acid column.
as §2, §3

recombinant human MMP-1 = biological target: T3, recombinant human MMP-1 (Homo sapiens, UniProt P03956); settings: for IC50: APMA-activated enzyme, MCA peptide substrate 4 μM, room temperature, pH 7.5; for inhibitory activity against MMP-1 (in words): discussion of Table 51
T3 construct: made in house; host or cells: transfected HT-1080 cells
T3 sequence (P03956 100-469): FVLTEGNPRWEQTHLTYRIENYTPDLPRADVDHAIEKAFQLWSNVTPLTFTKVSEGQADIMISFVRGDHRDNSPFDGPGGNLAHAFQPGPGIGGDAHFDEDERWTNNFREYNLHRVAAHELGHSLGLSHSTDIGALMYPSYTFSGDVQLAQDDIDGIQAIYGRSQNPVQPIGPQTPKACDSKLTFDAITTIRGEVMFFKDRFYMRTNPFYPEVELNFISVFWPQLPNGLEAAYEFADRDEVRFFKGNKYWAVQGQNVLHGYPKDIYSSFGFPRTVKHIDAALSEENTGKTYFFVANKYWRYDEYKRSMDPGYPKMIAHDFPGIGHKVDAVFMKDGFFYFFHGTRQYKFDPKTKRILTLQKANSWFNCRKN
Experimental: as §1, §4, §2, §3

MMP-9 = MMP-9 (Homo sapiens, UniProt P14780); settings: MCA peptide substrate 4 μM, room temperature, pH 7.5
Sequence of MMP-9 (P14780 107-707 limits assumed, species assumed): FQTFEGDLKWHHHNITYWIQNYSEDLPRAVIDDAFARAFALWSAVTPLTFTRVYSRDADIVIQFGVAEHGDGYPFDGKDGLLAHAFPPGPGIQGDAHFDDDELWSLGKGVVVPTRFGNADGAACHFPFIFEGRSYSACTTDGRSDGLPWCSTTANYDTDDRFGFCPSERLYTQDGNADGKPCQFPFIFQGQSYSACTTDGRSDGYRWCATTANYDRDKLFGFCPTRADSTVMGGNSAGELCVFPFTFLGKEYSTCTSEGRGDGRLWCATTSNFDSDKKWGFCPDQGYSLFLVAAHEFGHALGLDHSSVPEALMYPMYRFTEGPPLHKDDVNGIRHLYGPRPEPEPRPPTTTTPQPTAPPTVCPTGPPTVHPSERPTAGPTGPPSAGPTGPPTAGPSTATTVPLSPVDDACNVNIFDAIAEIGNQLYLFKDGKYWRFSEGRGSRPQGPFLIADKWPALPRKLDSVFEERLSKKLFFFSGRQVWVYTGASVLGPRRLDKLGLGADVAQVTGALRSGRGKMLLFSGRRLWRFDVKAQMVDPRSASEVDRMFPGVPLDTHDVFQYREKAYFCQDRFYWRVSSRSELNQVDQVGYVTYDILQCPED
Experimental: as §1, §2, §3

Structure (SMILES)	IC50 (MMP-2) [nM]	IC50 (recombinant human MMP-13) [nM]	IC50 (recombinant human MMP-1) [nM]	inhibitory activity against MMP-13 (in words) (recombinant human MMP-13)	inhibitory activity against MMP-1 (in words) (recombinant human MMP-1)	IC50 (MMP-9) [nM]	inhibitory activity against MMP-2 (in words) (MMP-2; discussion of Table 51)
COCC(O)(CS(=O)(=O)c1ccc(Oc2ccccc2)cc1)C(=O)NO (stereo not drawn) [Example 6, N,2-dihydroxy-2-(methoxymethyl)-3-[(4-phenoxyphenyl)sulfonyl]propanamide]	14.8	30	8000	–	–	–	–
COc1ccc(S(=O)(=O)CC(O)C(=O)NO)cc1 (stereo not drawn) [Example 8, N,2-dihydroxy-3-[(4-methoxyphenyl)sulfonyl]propanamide]	–	200	> 10000	only slightly better	relatively inactive	–	–
O=C(NO)[C@@H](O)CS(=O)(=O)c1ccc(Oc2ccccc2)cc1 [Example 10, (R)—N,2-dihydroxy-3-[(4-phenoxyphenyl)sulfonyl]propanamide]	0.4	1	4000	–	–	18	–
O=C(NO)[C@H](O)CS(=O)(=O)c1ccc(Oc2ccccc2)cc1 [Example 11, (S)—N,2-dihydroxy-3-[(4-phenoxyphenyl)sulfonyl]propanamide]	7	5	7000	–	–	66	–
O=C(NO)C(O)CS(=O)(=O)c1ccc(Sc2ccccc2)cc1 (stereo not drawn) [Example 12, N,2-dihydroxy-3-[[4-(phenylthio)phenyl]sulfonyl]propanamide]	2	3.7	> 10000	–	–	175	–
O=C(NO)C(O)(CO)CS(=O)(=O)c1ccc(Sc2ccccc2)cc1 (stereo not drawn) [Example 13]	2.3	5	> 10000	–	–	70	–
CCCCCc1ccc(C(=O)Nc2ccc(S(=O)(=O)CC(C)(O)C(=O)NO)cc2)cc1 (stereo not drawn) [Example 14, N-[4-[[2-hydroxy-3-(hydroxyamino)-2-methyl-3-oxopropyl]sulfonyl]phenyl]pentylbenzamide]	< 0.1	0.5	> 10000	–	–	–	–
CC(O)(CS(=O)(=O)c1ccc(NC(=O)Nc2ccccc2)cc1)C(=O)NO (stereo not drawn) [Example 15, N,2-dihydroxy-2-methyl-3-[[4-[((phenylamino)carbonyl)amino]phenyl]sulfonyl]propanamide]	87	3200	> 10000	–	–	–	–
CC(C)CC(=O)Nc1ccc(S(=O)(=O)CC(C)(O)C(=O)NO)cc1 (stereo not drawn) [Example 17, N-[4-[[2-hydroxy-3-(hydroxyamino)-2-methyl-3-oxopropyl]sulfonyl]phenyl]-3-methylbutanamide]	400	900	> 10000	–	–	–	–
CC(O)(CS(=O)(=O)c1ccc(NC(=O)c2ccc(Cl)cc2)cc1)C(=O)NO (stereo not drawn) [Example 18]	0.5	13	> 10000	–	–	–	–
Cc1ccccc1NC(=O)Nc1ccc(S(=O)(=O)CC(C)(O)C(=O)NO)cc1 (stereo not drawn) [Example 19, N,2-dihydroxy-2-methyl-3-[[4-[[[(2-methylphenyl)amino]carbonyl]amino]phenyl]sulfonyl]propanamide]	2600	10000	> 10000	–	–	–	–
Cc1cccc(NC(=O)Nc2ccc(S(=O)(=O)CC(C)(O)C(=O)NO)cc2)c1 (stereo not drawn) [Example 20, N,2-dihydroxy-2-methyl-3-[[4-[[[(3-methylphenyl)amino]carbonyl]amino]phenyl]sulfonyl]propanamide]	300	6600	> 10000	–	–	–	–
Cc1ccc(NC(=O)Nc2ccc(S(=O)(=O)CC(C)(O)C(=O)NO)cc2)cc1 (stereo not drawn) [Example 21, N,2-dihydroxy-2-methyl-3-[[4-[[[(4-methylphenyl)amino]carbonyl]amino]phenyl]sulfonyl]propanamide]	34	3600	> 10000	–	–	–	–
CC(O)(CS(=O)(=O)c1ccc(NC(=O)c2ccc(Cl)nc2)cc1)C(=O)NO (stereo not drawn) [Example 22, 6-chloro-N-(4-[[2-hydroxy-3-(hydroxyamino)-2-methyl-3-oxopropyl]sulfonyl]phenyl]-3-pyridinecarboxamide]	6.7	280	> 10000	–	–	–	–
O=C(Nc1ccc(S(=O)(=O)CC(O)C(=O)NO)cc1)c1ccccc1 (stereo not drawn) [Example 23, N-[4-[[2-hydroxy-3-(hydroxyamino)-3-oxopropyl]sulfonyl]phenyl]benzamide]	2.8	220	> 10000	–	–	1330	–
CCCCCCCOc1ccc(C(=O)Nc2ccc(S(=O)(=O)CC(C)(O)C(=O)NO)cc2)cc1 (stereo not drawn) [Example 24, 4-(heptyloxy)-N-[4-[[2-hydroxy-3-(hydroxyamino)-2-methyl-3-oxopropyl]sulfonyl]phenyl]benzamide]	< 0.1	< 0.1	> 10000	greater than could be measured in the assay	lower than could be measured in the assay	–	greater than could be measured in the assay
CCCCOc1ccc(C(=O)Nc2ccc(S(=O)(=O)CC(C)(O)C(=O)NO)cc2)cc1 (stereo not drawn) [Example 25, 4-butoxy-N-[4-[[2-hydroxy-3-(hydroxyamino)-2-methyl-3-oxopropyl]sulfonyl]phenyl]benzamide]	0.2	1.2	> 10000	–	–	–	–
CCCc1ccc(C(=O)Nc2ccc(S(=O)(=O)CC(C)(O)C(=O)NO)cc2)cc1 (stereo not drawn) [Example 26, N-[4-[[2-hydroxy-3-(hydroxyamino)-2-methyl-3-oxopropyl]-sulfonyl]phenyl]4-propylbenzamide]	0.1	1.2	> 10000	–	–	–	–
COc1cccc(C(=O)Nc2ccc(S(=O)(=O)CC(C)(O)C(=O)NO)cc2)c1 (stereo not drawn) [Example 27]	10	666	> 10000	–	–	–	–
CCCCc1ccc(C(=O)Nc2ccc(S(=O)(=O)CC(C)(O)C(=O)NO)cc2)cc1 (stereo not drawn) [Example 28, 4-butyl-N-[4-[[2-hydroxy-3-(hydroxyamino) -2-methyl-3-oxopropyl]-sulfonyl]phenyl]benzamide]	< 0.1	0.8	> 10000	–	–	–	–
CC(O)(CS(=O)(=O)c1ccc(NC(=O)c2cccc(F)c2)cc1)C(=O)NO (stereo not drawn) [Example 29]	1.8	80	> 10000	–	–	–	–
Cc1cccc(C(=O)Nc2ccc(S(=O)(=O)CC(C)(O)C(=O)NO)cc2)c1 (stereo not drawn) [Example 30, N-[4-[[2-hydroxy-3-(hydroxyamino)-2-methyl-3-oxopropyl]sulfonyl]phenyl]-3-methylbenzamide]	20	316	> 10000	–	–	–	–
CC(O)(CS(=O)(=O)c1ccc(NC(=O)c2cccc(Cl)c2)cc1)C(=O)NO (stereo not drawn) [Example 31, 3-chloro-N-[4-[[2-hydroxy-3-(hydroxyamino)-2-methyl-3-oxopropyl]sulfonyl]phenyl]benzamide]	37.2	600	> 10000	–	–	–	–
CC(O)(CS(=O)(=O)c1ccc(NC(=O)c2ccc(F)c(F)c2)cc1)C(=O)NO (stereo not drawn) [Example 32, 3,4-difluoro-N-[4-[[2-hydroxy-3-(hydroxyamino)-2-methyl-3-oxopropyl]sulfonyl]phenyl]benzamide]	1.6	80	> 10000	–	–	–	–
CC(O)(CS(=O)(=O)c1ccc(NC(=O)c2cccc([N+](=O)[O-])c2)cc1)C(=O)NO (stereo not drawn) [Example 33]	50	1600	> 10000	–	–	–	–
CC(O)(CS(=O)(=O)c1ccc(NC(=O)c2cccc(NCCCCO)c2)cc1)C(=O)NO (stereo not drawn) [Example 34]	32.7	1600	> 10000	–	–	–	–
CC(O)(CS(=O)(=O)c1ccc(NC(=O)c2cccc(N)c2)cc1)C(=O)NO (stereo not drawn) [Example 35, 3-amino-N-[4-[[2-hydroxy-3-(hydroxyamino)-2-methyl-3-oxopropyl]-sulfonyl]phenyl]benzamide]	6.7	290	> 10000	–	–	–	–
